{"source": "patent US4661473A", "about": "“Renin inhibitors containing peptide isosteres” (Merck & Co., Inc., priority 1984, dated 1987)", "origin": "cited, not measured here", "test_system": "hog renin", "settings": "after the injection of hog renin into nephrectomized rats; Gross et al. 1971", "data": [{"substance": "Pepstatin", "values": [{"measurement": "blood pressure in vivo", "result": "reduce blood pressure in vivo"}]}]}
